Common to all, as to type: cell-based, Influenza A virus (A/Puerto Rico/8/1934(H1N1))
Assay [1] can be described thus: Inhibition of Influenza A virus (A/PR 8/34 (H1N1)) hemagglutinin HA2 chain L99F mutant transfected in human HeLa cells assessed as reduction in low pH-indued polykaryon formation preincubated for 15 mins followed by pH 5.2 buffer addition and measured after 5 mins by giemsa staining based microscopic analysis.
A short description of assay [2]: Inhibition of Influenza A virus (A/PR 8/34 (H1N1)) hemagglutinin HA1 chain 1324T mutant transfected in human HeLa cells assessed as reduction in low pH-indued polykaryon formation preincubated for 15 mins followed by pH 5.2 buffer addition and measured after 5 mins by giemsa staining based microscopic analysis.
A short description of assay [3]: Inhibition of Influenza A virus (A/PR 8/34 (H1N1)) hemagglutinin HA1 chain S326V mutant transfected in human HeLa cells assessed as reduction in low pH-indued polykaryon formation preincubated for 15 mins followed by pH 5.2 buffer addition and measured after 5 mins by giemsa staining based microscopic analysis.

As usually defined, the IC50 is the concentration at which inhibition is half-maximal. `COC(=O)C[C@H](NC(=O)OC(C)(C)C)C(=O)N(Cc1ccc(F)cc1)C1(C(=O)NCc2ccccc2)CCN(Cc2ccccc2)CC1`: the IC50 in assay [1] is above 100 µM; in assay [2], 3.2 µM; in assay [3], above 100 µM.

Values taken from ChEMBL document CHEMBL4680243, “N-benzyl 4,4-disubstituted piperidines as a potent class of influenza H1N1 virus inhibitors showing a novel mechanism of hemagglutinin fusion peptide interaction” (Eur J Med Chem, 2020).
